Assay results taken from patent US12435062B2, “Amide compounds and uses thereof” (HUTCHISON MEDIPHARMA LIMITED, priority 2020, dated 2025).
pIC50: −log10 of the molar value.

Experiments:
[1] = molecular target: Recombinant human CSF1R kinase (Homo sapiens (Human), UniProt P07333); assay type: biochemical; conditions: Z-LYTE Tyr 1 peptide substrate
[2] = molecular target: CSF1R phosphorylation in THP-1 cells (Homo sapiens (Human), UniProt P07333); test: Detection of CSF1R phosphorylation activity at cell level (THP-1, M-CSF stimulated, ELISA); assay type: cell-based; conditions: p-CSF1R ELISA, compound 60 min, 300 ng/mL M-CSF 1 min
CSF1R phosphorylation in THP-1 cells, sequence (P07333 20-972): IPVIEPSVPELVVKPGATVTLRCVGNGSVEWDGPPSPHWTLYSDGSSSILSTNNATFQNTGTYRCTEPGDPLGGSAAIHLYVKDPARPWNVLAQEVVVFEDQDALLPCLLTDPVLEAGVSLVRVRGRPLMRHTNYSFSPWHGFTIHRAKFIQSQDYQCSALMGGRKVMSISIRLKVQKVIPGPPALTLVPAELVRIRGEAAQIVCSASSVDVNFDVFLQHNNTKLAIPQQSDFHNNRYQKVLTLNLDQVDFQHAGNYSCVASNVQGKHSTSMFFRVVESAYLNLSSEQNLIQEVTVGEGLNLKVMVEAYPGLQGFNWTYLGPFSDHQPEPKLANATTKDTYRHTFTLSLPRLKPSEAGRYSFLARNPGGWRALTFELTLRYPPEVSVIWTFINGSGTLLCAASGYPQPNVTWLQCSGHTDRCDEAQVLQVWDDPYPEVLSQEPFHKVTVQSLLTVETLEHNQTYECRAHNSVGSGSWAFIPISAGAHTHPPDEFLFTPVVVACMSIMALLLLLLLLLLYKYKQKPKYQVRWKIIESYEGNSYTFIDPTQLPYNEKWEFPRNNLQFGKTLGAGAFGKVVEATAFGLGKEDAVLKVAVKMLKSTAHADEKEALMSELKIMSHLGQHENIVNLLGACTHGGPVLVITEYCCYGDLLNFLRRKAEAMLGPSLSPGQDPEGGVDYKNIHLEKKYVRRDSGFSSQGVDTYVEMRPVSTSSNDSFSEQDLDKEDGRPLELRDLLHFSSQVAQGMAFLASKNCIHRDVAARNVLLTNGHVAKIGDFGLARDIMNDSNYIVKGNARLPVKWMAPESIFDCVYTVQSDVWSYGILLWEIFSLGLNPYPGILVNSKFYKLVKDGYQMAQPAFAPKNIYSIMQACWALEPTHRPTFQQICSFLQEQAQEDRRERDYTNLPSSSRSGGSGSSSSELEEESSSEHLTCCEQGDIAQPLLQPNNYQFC
Experimental: Detection of CSF1R Phosphorylation Activity at Cell Level
THP-1 (ATCC), human acute monocytic leukemia cells. The cells were cultured in an RPMI 1640 medium containing 10% FBS.
(§1) 2. Reagents and instruments
• Human phosphorylation-CSF1R ELISA kit: R&D, #DYC3268-2; • RPMI 1640 culture solution: GIBCO, 910491; • Human M-CSF recombinant cytokine: R&D, 9216-MC-500; • Cell lysis buffer: Cell Signal, 99803S; • 1×PBS buffer (1 L): 8.0 g of NaCl, 0.2 g of KCl, 3.58 g of Na2HPO4-12H2O, 0.24 g of KH2PO4 were dissolved in 1 L of dd H2O, and the pH was adjusted to 7.4; • Blocking solution: PBS buffer containing 1% BSA; • PBST washing liquid: PBS buffer containing 0.05% Tween-20; • Chromogenic substrate: R&D, #DY999; • 2N H2SO4; • Microwell plate reader: Labsystems Multiskan K3: Thermo; Envision: Perkin Elmer; • ELISA plate: Corning, #9018; • Cell culture plate: Facol, #353027. 3. Treatment of cells and preparation of lysis buffer
THP-1 cells were resuspended in RPMI-1640 culture solution containing 2% FBS, and the culture was added to a 96-well plate at a density of 5×10^4/well, 50 μL/well, and cultured in a cell incubator at 5% CO2 and 37° C. overnight; The test compound was diluted with a serum-free RPMI-1640 medium to 3, 1.1, 0.37, 0.12, 0.04, 0.014, 0.005 and 0.002 μM, and the concentration of DMSO was 5%. 5 μL of the diluted compound was added to the 50 μL cell culture system, the culture was cultured in a 5% CO2, 37° C. cell incubator for 60 min, 300 ng/mL of M-CSF was added to the cells, and the mixture was stimulated in the 37° C. cell incubator for 1 min, added 50 μL of cell lysis buffer, and stored in a refrigerator at −80° C.
100 μL/well of the p-CSF1R capture antibody diluted to 0.8 μg/mL with PBS was added to the ELISA plate, and the plate was coated on a shaker at room temperature overnight. The culture was washed with PBST, and then added blocking solution and incubated at room temperature for 2 h. The culture was washed with PBST, added 90 μL of cell lysis buffer, and incubated on a shaker at 25° C. for 2 h. The plate was washed with PBST three times, added 100 μL of anti-p-tyrosine-HRP detection antibody diluted with 0.1% PBS-BSA diluent, and incubated on a shaker at 25° C. for 2 h. The plate was washed with PBST washing liquid, added 100 μL of chromogenic substrate and incubated at room temperature for 10-20 min. The reaction was stopped by adding 50 μL of 2N H2SO4. The optical density signal (450/570 nm) of each well was detected in Labsystems Multiskan K3 or Envision.
wherein • Drug-treated well read-out: indicating the optical density signal of a cell well with the test compound treatment. • Background read-out: indicating the optical density signal of a well without cells but with cell lysis buffer. • Cell well read-out: indicating the optical density signal of a cell well not treated with the compound. 6. Calculation of IC50: obtained by using XL-Fit 5.3 software. 7. Test results

[3] = test system: Ba/F3^BCR-FMS-11 cells; test: Cell proliferation experiment (Ba/F3^BCR-FMS-11, cckit-8); assay type: cell-based, mouse; conditions: Ba/F3^BCR-FMS-11 cell proliferation
Experimental: Cell Proliferation Experiment
Ba/F3^BCR-FMS-11, mouse primary B lymphocytes stably expressing the BCR-FMS fusion gene. The cells were cultured in an RPMI 1640 medium containing 10% FBS.
as §1
• cckit-8 kit: Dojindo, 9 CK04; • Envision: Perkin Elmer; • Cell culture plate: Facol, 9353027. 3. Experimental steps
The BCR-FMS fusion gene was transfected into Ba/F3 cells, and the cell line Ba/F3^BCR-FMS-11 that stably expresses BCR-FMS and grows depending on CSF-1R was screened. Ba/F3^BCR-FMS-11 cell proliferation experiments is completed by using the Cell Counting kit cckit-8 in a 96-well plate. In a 96-well plate, 5000/well of Ba/F3^BCR-FMS-11 cells were inoculated at 100 μL/well. […] 10 μL of the compound dilutions with the above 8 concentrations were added to the culture cell wells. The culture was incubated in a 37° C. and 5% CO2 cell incubator for 72 hours. 10 μL of Cell Counting kit cckit-8 detection reagent was added to each well, and incubated at 37° C. and 5% CO2 in a cell incubator for another 1 h. The optical density absorption value at 450 nm of each well was detected by using Perkin Elmer Envision instrument.
wherein • Drug-treated well read-out: indicating the optical density signal of a cell well with the test compound treatment. • Cell well read-out: indicating the optical density signal of a cell well not treated with the test compound (only 0.5% DMSO). • Background read-out: indicating the optical density signal of a well with the cell medium. 5. Calculation of IC50: obtained by using XL-Fit 5.3 software. 6. Test results

Recombinant human CSF1R kinase, sequence (P07333 20-972): as above

Row | Structure (SMILES) | pIC50 [1] | pIC50 [2] | pIC50 ([3]; Mus musculus, 72 h) | pIC50 ([3]; 72 hours)
1 | CC(C)n1cncc(C(=O)Nc2ccc(Oc3ccnc(-c4cnn(C)c4)c3)cn2)c1=O [Compound 56] | 8.40 | 7.68 | 8.10 | –
2 | CC(C)n1cc(Cl)cc(C(=O)Nc2ccc(Oc3ccnc(-c4cnn(C)c4)c3)cn2)c1=O [Compound 57] | 7.62 | 7.37 | 7.92 | –
3 | Cn1cc(-c2cc(Oc3ccc(NC(=O)c4nccn(C)c4=O)nc3)ccn2)cn1 [Compound 58] | 7.16 | 6.90 | 6.75 | –
4 | CC(C)n1nccc(C(=O)Nc2ccc(Oc3ccnc(-c4cnn(C)c4)c3)cn2)c1=O [Compound 60] | 8.10 | 7.85 | 7.82 | –
5 | Cn1cc(-c2cc(Oc3ccc(NC(=O)c4cccn(C(F)F)c4=O)nc3)ccn2)cn1 [Compound 61] | 7.35 | 7.12 | 7.06 | –
6 | Cc1ncc(-c2cc(Oc3ccc(NC(=O)c4cnc(C)n(C)c4=O)nc3)ccn2)s1 [Compound 62] | 7.70 | 8.05 | 7.49 | –
7 | Cc1ncc(C(=O)Nc2ccc(Oc3ccnc(Nc4cnn(C)c4)c3)cn2)c(=O)n1C [Compound 63] | 8.05 | 8.30 | 8.10 | –
8 | Cc1ncc(C(=O)Nc2ccc(Oc3ccnc(-c4ccc5nccn5c4)c3)cn2)c(=O)n1C [Compound 64] | 7.80 | 7.68 | 7.40 | –
9 | Cc1ncc(C(=O)Nc2ccc(Oc3ccnc(Nc4ccccn4)c3)cn2)c(=O)n1C [Compound 65] | 8.30 | 8.00 | 8.10 | –
10 | Cc1ncc(C(=O)Nc2ccc(Oc3ccnc(-c4ccn5ccnc5c4)c3)cn2)c(=O)n1C [Compound 66] | 7.27 | 7.64 | 7.26 | –
11 | Cn1cc(Nc2cc(Oc3ccc(NC(=O)c4cccn(C)c4=O)nc3)ccn2)cn1 [Compound 67] | 7.48 | 8.05 | – | 7.60
12 | Cc1ncc(C(=O)Nc2ccc(Oc3ccnc(Nc4ccn(C(F)F)n4)c3)cn2)c(=O)n1C [Compound 68] | 8.15 | 8.22 | 7.92 | –
13 | O=C(Nc1ccc(Oc2ccnc(Nc3ccn(C(F)F)n3)c2)cn1)c1cnc2n(c1=O)CCC2 [Compound 69] | 8.52 | 8.52 | 8.40 | –
14 | CC(C)n1cccc(C(=O)Nc2ccc(Oc3ccnc(-c4ccnn4C)c3)cn2)c1=O [Compound 70] | 7.49 | 6.69 | 6.65 | –
15 | CC(C)n1cccc(C(=O)Nc2ccc(Oc3ccnc(-c4ccn(C)n4)c3)cn2)c1=O [Compound 71] | 8.00 | 7.44 | 7.29 | –
16 | Cn1cc(-c2cc(Oc3ccc(NC(=O)c4cc5ccccc5n(C)c4=O)nc3)ccn2)cn1 [Compound 72] | 7.85 | 7.80 | 8.15 | –
17 | CC(C)c1ncc(C(=O)Nc2ccc(Oc3ccnc(-c4cnn(C)c4)c3)cn2)c(=O)n1C [Compound 73] | 7.96 | 7.51 | 7.77 | –
18 | Cc1c(F)cc(C(=O)Nc2ccc(Oc3ccnc(Nc4cnn(C)c4)c3)cn2)c(=O)n1C [Compound 75] | 8.10 | 7.85 | 8.15 | –
19 | Cc1c(F)cc(C(=O)Nc2ccc(Oc3ccnc(Nc4ccnn4C)c3)cn2)c(=O)n1C [Compound 76] | 8.30 | 7.74 | 8.40 | –
20 | Cn1nccc1Nc1cc(Oc2ccc(NC(=O)c3cc(F)cn(C)c3=O)nc2)ccn1 [Compound 77] | 8.22 | 8.00 | 8.30 | –
21 | Cn1cc(Nc2cc(Oc3ccc(NC(=O)c4cc(F)cn(C)c4=O)nc3)ccn2)cn1 [Compound 78] | 7.82 | 7.96 | 7.96 | –
22 | Cn1cc(-c2cc(Oc3ccc(NC(=O)c4cc(F)cn(C)c4=O)nc3)ccn2)cn1 [Compound 80] | 8.40 | 8.52 | 8.30 | –
